Tests used:
[1] = test system: beta-lactamase producers organisms, such as Klebsiella aerogenes 1082 E, Enterobacter cloacae P 99, Escherichia coli Tem; experiment: antibacterial activity against beta-lactamase producers organisms; format: cell-based; settings: in words
[2] = test system: clinical isolates of indole-positive Proteus; experiment: antibacterial activity against clinical isolates of indole-positive Proteus relative to HR-756; format: cell-based; settings: in words
[3] = approximate acute toxicity in the mouse, single intravenous administration; settings: in vivo, single intravenous administrations of increasing doses, measured on the seventh day
Description: The toxicity of the compounds of the invention is quite negligible and therefore they can be safely used in therapy.

[4] = test system: most Gram-negative bacteria; experiment: antibacterial activity against most Gram-negative bacteria, relative to reference cephalosporins; format: cell-based
streptococci = experiment: antibacterial activity against streptococci, relative to reference cephalosporin; format: cell-based
[5] = test system: Bacteroides fragilis VPI 9032; experiment: antibacterial activity against Bacteroides fragilis relative to Cefotaxime; format: cell-based; settings: in words
[6] = test system: Escherichia coli G, Klebsiella pneumoniae ATCC 10031, Proteus mirabilis ATCC 9921, Escherichia coli Tem., Haemophilus influenzae, Salmonella typhi Watson and …; experiment: in vivo tests in infected mice; settings: in words

With `CO/N=C(\C(=O)N[C@@H]1C(=O)N2C(C(=O)O)=C(CSc3ccc4nnnn4n3)CS[C@H]12)c1csc(=N)n1O` [FCE 20635, 7β-[2-(2-imino-3-hydroxy-4-thiazolinyl)-2-methoxyimino-acetamido]-3-[(tetrazolo[1,5-b]pyridazin-6-yl)-thiomethyl]-3-cephem-4-carboxylic acid (syn-isomer)] the “activity against most beta-lactamase producers organisms” value [1] was “high activity”, the “activity compared with HR-756” value [2] was “more active than HR-756” and the LD50 at 168 h [3] was over 2000 mg/kg. For the same compound, the “times more active than Cefazolin” value [4] was “about 30 times”, the “times more active than Cefuroxime” value [4] was “about 40 times” and the “times more active than Cefazolin” value (streptococci) was “about 4 times”. The “activity compared with Cefotaxime” value [5] was “at least as active as Cefotaxime” and the “activity in vivo tests” value [6] was “high activity”.
